We go through 5 molecules from patent US12180193B2, “Accelerating fibrosarcoma protein degrading compounds and associated methods of use” (Arvinas Operations, Inc., priority 2020, dated 2024).

One experiment deals with T1, BRAF G466V (Homo sapiens, UniProt P15056, G466V).
T1 construct: expressed in transfected cells
The experiment in a line: Cellular assay of target protein degradation, T-Rex 293 cells stably transfected with HA-BRAF G466V (HA immunofluorescence, high content imaging). The following applies: T-Rex 293 HA-BRAF G466V; for DC50: half maximal degradation, read-out: BRaf G466V DC50; for Dmax: maximum degradation observed. In kind it is cell-based. Summed up:
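Cells expressing doxycycline-induced (0.75 ng/mL) HA-BRAF G466V were treated with compound at 30 nM to 3 pM in 0.1% DMSO for 24 hours at 37° C. After fixation and permeabilization, HA was immunostained and quantified by high content imaging to derive DC50 and Dmax.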

The next experiment has as its target T2, BRAF V600E (Homo sapiens, UniProt P15056, V600E).
T2 construct: expressed in transfected cells
The experiment in a line: Cellular assay of target protein degradation, T-Rex 293 cells stably transfected with HA-BRAF_V600E (HA immunofluorescence, high content imaging). In kind it is cell-based. The note with it: T-Rex 293 HA-BRAF V600E; for DC50: half maximal degradation, read-out: BRaf V600E DC50; for Dmax: maximum degradation observed. The essentials: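 Doxycycline-induced (1 ng/mL) cells were treated 24 h at 37 °C with compound at 1 μM to 0.1 nM final in 0.1% DMSO. After fixation, permeabilization and blocking, anti-HA staining was imaged by high-content reading; DC50 and Dmax (% of control) were derived.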

Bounds are passed on as bounds.

T1 sequence (P15056 whole entry G466V): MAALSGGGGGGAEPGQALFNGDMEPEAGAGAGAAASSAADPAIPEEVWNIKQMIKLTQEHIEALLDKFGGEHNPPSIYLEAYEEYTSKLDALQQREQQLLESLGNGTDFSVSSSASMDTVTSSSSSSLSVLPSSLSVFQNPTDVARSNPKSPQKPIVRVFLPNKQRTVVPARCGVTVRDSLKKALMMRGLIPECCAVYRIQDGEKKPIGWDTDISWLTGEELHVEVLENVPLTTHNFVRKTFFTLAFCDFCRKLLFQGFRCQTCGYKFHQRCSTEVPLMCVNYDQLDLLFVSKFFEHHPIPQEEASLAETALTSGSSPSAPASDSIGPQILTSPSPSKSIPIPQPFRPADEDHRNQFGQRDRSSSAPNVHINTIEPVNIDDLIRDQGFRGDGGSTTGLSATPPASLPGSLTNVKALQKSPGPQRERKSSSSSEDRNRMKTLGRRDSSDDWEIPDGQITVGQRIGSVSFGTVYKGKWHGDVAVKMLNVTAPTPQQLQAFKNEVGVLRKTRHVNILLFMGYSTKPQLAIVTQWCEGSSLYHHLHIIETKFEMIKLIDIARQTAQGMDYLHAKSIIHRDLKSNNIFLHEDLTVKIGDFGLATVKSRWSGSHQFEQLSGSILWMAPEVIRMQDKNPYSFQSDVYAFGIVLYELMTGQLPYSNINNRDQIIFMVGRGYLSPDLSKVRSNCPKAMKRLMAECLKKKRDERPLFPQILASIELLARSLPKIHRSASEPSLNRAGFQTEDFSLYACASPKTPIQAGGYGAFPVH
T2 sequence (P15056 whole entry V600E): as the sequence (P15056 whole entry G466V) above, with V466G, V600E counted along it

Take `CCCS(=O)(=O)Nc1ccc(F)c(C(=O)c2c[nH]c3ncc(-c4ccc(N5CCC(CN6CC7(C6)CN(c6ccc8c(c6)CN([C@H]6CCC(=O)NC6=O)C8=O)C7)CC5)cc4)cc23)c1F` [Compound 228, N-{3-[5-(4-{4-[(6-{2-[(3S)-2,6-dioxopiperidin-3-yl]-1-oxo-2,3-dihydro-1H-isoindol-5-yl}-2,6-diazaspiro[3.3]heptan-2-yl)methyl]piperidin-1-yl}phenyl)-1H-pyrrolo [2,3-b]pyridine-3-carbonyl]-2,4-difluorophenyl} propane-1-sulfonamide]: the DC50 (commonly the midpoint of the concentration-degradation curve) was below 1 nM at BRAF G466V and 5 to 50 nM at BRAF V600E. In addition, the Dmax (commonly the largest share of the target that was removed) at BRAF G466V is above 70%; on BRAF V600E it was 35 to 70%.
Consider `CCCS(=O)(=O)Nc1ccc(F)c(C(=O)c2c[nH]c3ncc(-c4ccc(N5CCC(CN6CC7(C6)CN(c6ccc8c(c6)CN([C@@H]6CCC(=O)NC6=O)C8=O)C7)CC5)cc4)cc23)c1F` [Compound 229, N-{3-[5-(4-{4-[(6-{2-[(3R)-2,6-dioxopiperidin-3-yl]-1-oxo-2,3-dihydro-1H-isoindol-5-yl}-2,6-diazaspiro[3.3]heptan-2-yl)methyl]piperidin-1-yl}phenyl)-1H-pyrrolo [2,3-b]pyridine-3-carbonyl]-2,4-difluorophenyl} propane-1-sulfonamide], for which, on BRAF G466V, the DC50 fell in the range of 1 to 10 nM and the Dmax is above 70%. Besides, on BRAF V600E, the DC50 lay in the range of 5 to 50 nM and the Dmax is 35 to 70%.
`O=C1CC[C@H](N2Cc3cc(C4CCN(CC5CCN(c6ccc(-c7cnc8[nH]cc(C(=O)c9c(F)ccc(NS(=O)(=O)N%10CCCC%10)c9F)c8c7)cc6)CC5)CC4)ccc3C2=O)C(=O)N1` [Compound 230, N-{3-[5-(4-{4-[(4-{2-[(3S)-2,6-dioxopiperidin-3-yl]-1-oxo-2,3-dihydro-1H-isoindol-5-yl}piperidin-1-yl)methyl]piperidin-1-yl}phenyl)-1H-pyrrolo[2,3-b]pyridine-3-carbonyl]-2,4-difluorophenyl}pyrrolidine-1-sulfonamide]: the DC50 was below 1 nM on BRAF G466V and 5 to 50 nM on BRAF V600E. Also, the Dmax at BRAF G466V was above 70%; at BRAF V600E it was 35 to 70%.
As to `O=C1CC[C@@H](N2Cc3cc(C4CCN(CC5CCN(c6ccc(-c7cnc8[nH]cc(C(=O)c9c(F)ccc(NS(=O)(=O)N%10CCCC%10)c9F)c8c7)cc6)CC5)CC4)ccc3C2=O)C(=O)N1` [Compound 231, N-{3-[5-(4-{4-[(4-{2-[(3R)-2,6-dioxopiperidin-3-yl]-1-oxo-2,3-dihydro-1H-isoindol-5-yl}piperidin-1-yl)methyl]piperidin-1-yl}phenyl)-1H-pyrrolo[2,3-b]pyridine-3-carbonyl]-2,4-difluorophenyl}pyrrolidine-1-sulfonamide], on BRAF G466V, the DC50 lay in the range of 1 to 10 nM and the Dmax was above 70%. Besides, on BRAF V600E, the DC50 is 5 to 50 nM and the Dmax lay in the range of 35 to 70%.
Turning to `O=C1CC[C@H](N2Cc3cc(C4CCN(CC5CCN(c6ccc(-c7cnc8[nH]cc(C(=O)c9c(F)ccc(NS(=O)(=O)N%10CCC(F)(F)C%10)c9F)c8c7)cc6)CC5)CC4)ccc3C2=O)C(=O)N1` [Compound 232, N-{3-[5-(4-{4-[(4-{2-[(3S)-2,6-dioxopiperidin-3-yl]-1-oxo-2,3-dihydro-1H-isoindol-5-yl}piperidin-1-yl)methyl]piperidin-1-yl}phenyl)-1H-pyrrolo[2,3-b]pyridine-3-carbonyl]-2,4-difluorophenyl}-3,3-difluoropyrrolidine-1-sulfonamide], at BRAF G466V, the DC50 lay within 1 to 10 nM and the Dmax was above 70%. In addition, on BRAF V600E, the DC50 is 5 to 50 nM and the Dmax was 35 to 70%.
